{"source": "patent US20220400669A1", "about": "“COMPOUNDS AND METHODS FOR PROMOTING PLANT GROWTH” (King Abdullah University of Science and Technology, priority 2019, published 2022)", "key": {"[1]": {"assay": "Chemical stability in aqueous solution by HPLC", "assay_type": "physicochemical", "settings": "14-day HPLC analysis, room temperature (21±1° C.), pH 5.0-6.0 aqueous solution; compared with MZ5", "description": "MZ3, and MZ5 were tested for their chemical stability at 21±1° C. with pH 5.0-6.0 aqueous solution following the protocol described recently. 50 μl of each compound solutions (1 mg ml-1) was prepared with 175 μl ethanol and 750 μl Mili-Q water. Thereafter, 25 μl Indanol (1 mg ml-1, internal standard) was spiked in 975 μl previous prepared solution. The degradation was monitored at a time course by UPLC analysis using an Agilent HPLC ZORBAX Eclipse XDB-C18 column (3.5 μm, 4.6×150 mm), eluted first by 5% acetonitrile in water for 0.5 min then by a gradient flow from 5% to 100% acetonitrile within 18 min, and by 100% acetonitrile for 5 min. The column was operated at 40° C. at 0.35 ml min^−1 flow rate. Compounds eluted from the column were detected with a photodiode array detector, and the relative quantity of non-degraded amount was calculated by integration comparison with Indanol.\nZaxinone was tested under the same conditions for comparison. Synthetic zaxinone was purchased (customized synthesis) from Buchem B.V. (Apeldoorn, The Netherlands)."}, "[2]": {"tested_on": "strigolactones (4-deoxyorobanchol, orobanchol) content", "assay": "LC-MS/MS quantification of SLs in rice root tissues", "assay_type": "in vivo", "settings": "Pi-starved WT rice, 5 μM, 6 hours", "description": "(§1) For SL analysis, one-week-old seedlings were transferred into 50 ml falcon tubes (two seedlings per tube), containing half-strength Hoagland nutrient solution with K2HPO4.2H2O (+Pi), and grown in the biochamber for one week. Rice seedlings were then subjected to phosphate deficiency (−Pi) for another one week. On the day of root exudates collection, rice seedlings were first treated with 5 μM Zaxinone, or MZ compounds for 6 h, and then root exudates and root tissues were collected from each tube for LC-MS/MS analysis and Striga bioassays.\nFor the quantification of SLs in rice root, plant tissue material was lyophilized and grinded. Approximately 20 mg root tissue spiked with 0.672 ng of D6-5-deoxystrigol was extracted with 2 ml of ethyl acetate in an ultrasound bath (Branson 3510 ultrasonic bath) for 15 min, followed by centrifugation for 8 min at 3800 rpm at 4° C. The supernatant was collected and the pellet was re-extracted with 2 ml of ethyl acetate. Then the two supernatants were combined and dried under vacuum. The residue was dissolved in 100 μl of ethyl acetate and 2 ml of hexane. The resulting extract solution was loaded on a Silica gel SPE column (500 mg/3 ml) preconditioned with 3 ml of ethyl acetate and 3 ml of hexane. […] 4-deoxyorobanchol was analyzed by using HPLC-Q-Trap-MS/MS with MRM mode. […]"}, "[3]": {"tested_on": "Gigaspora margarita spores", "assay": "Gigaspora margarita spores germination", "assay_type": "in vivo", "settings": "5 μM and 50 nM, 3 and 7 days", "description": "Spores were sterilized in a solution of Streptomycine sulphate (0.03% W/V) and Chloramine T (3% W/V) and germinated in 200 μl of MZ3 and MZ5 at 5 μM or 50 nM, GR24 10 nM or a solution of Water/Acetone (12.5 μl acetone in 25 ml water). For each treatments 96 sterilized spores were placed individually in the wells of a multi-well plate and treated with freshly prepared solutions at the beginning of the experiment and after 3 days. Spores were germinated in the dark at 30° C. and the germination rate was evaluated after 3 days and 7 days."}, "[4]": {"tested_on": "strigolactones (4-deoxyorobanchol, orobanchol) release", "assay": "LC-MS/MS quantification of SLs in rice root exudates", "assay_type": "in vivo", "settings": "5 μM", "description": "as §1\nFor the quantification of SLs in rice root exudates, 50 ml of root exudates spiked with 0.672 ng of D6-5-deoxystrigol, was brought on a 500 mg/3 ml fast SPE C18 column preconditioned with 6 ml of methanol and 3 ml of water. After washing with 3 ml of water, SLs were eluted with 5 ml of acetone. The 4-deoxyorobanchol fraction (acetone-water solution) was concentrated to SL aqueous solution (˜500 μl), followed by the extraction with 1 ml of ethyl acetate. 750 μl of SLs enriched organic phase was then transferred to 1.5 ml tube and evaporated to dryness under vacuum. The dried extract was dissolved in 100 μl of acetonitrile:water (25:75, v:v) and filtered through a 0.22 µm filter for LC-MS/MS analysis."}, "[5]": {"assay": "LC-MS analysis of rice plants fed with the mimics", "assay_type": "in vivo", "settings": "data not shown"}}}
{"compound": "COc1ccc(Oc2cccc(/C=C/C(C)=O)c2)cc1", "note": "[MZ3, (E)-4-(3-(4-methoxyphenoxy)phenyl)but-3-en-2-one]", "values": [{"measurement": "stability (relative amount of non-degraded compound)", "setting": "[1]", "value": "much more stable"}, {"measurement": "Oro content in roots", "setting": "[2]; control 0.6", "value": 0.1, "unit": "pgmg-1dry-root-weight"}, {"measurement": "4DO content in roots", "setting": "[2]; control 2.5", "value": 0.5, "unit": "pgmg-1dry-root-weight"}, {"measurement": "spore germination rate", "setting": "[3]", "value": "no effect"}, {"measurement": "Oro content in root exudates", "setting": "[4]; Pi-starved WT rice, 6 hours, control 20", "value": 5, "unit": "pgmg-1dry-root-weight"}, {"measurement": "4DO content in root exudates", "setting": "[4]; Pi-starved WT rice, 6 hours, control 25", "value": 10, "unit": "pgmg-1dry-root-weight"}, {"measurement": "effect on 4-deoxyorobanchol relative to Zaxinone", "setting": "[4]; roots and root exudates, Pi-starved WT rice, 6 hours", "value": "significantly stronger"}, {"measurement": "SL level of the root exudate", "setting": "[4]; wild-type rice seedlings, Pi-starvation, 6 h, compared with Zaxinone (FIGS. 19, 20A-20B)", "value": "obvious effect"}, {"measurement": "SL content in zas mutant (high SL phenotype)", "setting": "[4]; zas mutant rice roots and root exudates, Pi starvation (FIGS. 11A-11B)", "value": "strongly inhibited"}, {"measurement": "presence in shoots of rice plants fed through roots", "setting": "[5]", "value": "detected"}]}
